The test system of assay [1] is CWR22Rv1 cells (human prostate cancer). Put plainly: MTT cell growth assay, CWR22Rv1 cells. Type of assay: cell-based. To be noted: Homo sapiens, 120 h, 5 days, read-out: Inhibition of Tumor cells growth IC50. As to the method: The MTT cell proliferation assay was applied in the present invention to detect the capability of compounds to suppress or inhibit prostate cancer cells growth. […] Briefly, 1 x 10^3 LNCaP or CWR22Rv1 cells suspended in complete medium were plated into each well of a 96-well Microtest III tissue culture plate (Falcon, NJ). Two days later, the medium was replaced with RPMI-1640 medium containing 10% charcoal/dextran-deprived FBS (hormone-deprived fetal bovine serum). Testing compounds were added to the medium at indicated concentrations with or without 1 nM DHT and cells were cultured for 5 days in an incubator (at 37 °C). MTT substrate solution (5 mg/ml in PBS) in 1/10 of volume was added to the cells in each well at 2 hours before harvesting. After 2 hour incubation, the plates were centrifuged (10 min at 1,000 rpm) and the supernatant from each well was carefully removed. A 100 µl of lysis buffer (50% dimethyl formamide, 5% sodium dodecyl sulphate, 0.35 M acetic acid, and 50 mM HCl) was added to each well to lyse the cells and dissolved tetrazolium in each well. The relative quantity of enzyme activity from each well was measured based on absorbance read at a wavelength of 450 nm using a Bio-RAD BenchMark microplate reader. Data derived from the MTT assay were also verified by the actual cell count and cell morphology on a separate plate set up in parallel.
For inhibition of tumor cell growth, in vitro, cells were growth in the presence of testing compounds for 5 days, and the cell growth was assayed by standard MTT assay. […] Table 2: Biological activity of Compounds and Derivatives having (1E, 6E)-1,7-bis-(3,4-dimethoxyphenyl)-4,4-disubstituted-hepta-1,6-diene-3,5-dione OR (1E, 10E)-1,11-bis(substituted phenyl)- 6,6-disubstituted undeca-1,3,8,10-tetraene-5,7-dione structural scaffold
A general note: Tetrazolium assays rely on reduction of a dye to a coloured formazan, in cell work by metabolically active cells.

A further assay concerns the target T1, AR protein (Homo sapiens, UniProt P10275, T878A).
T1 sequence (P10275 1-920 T878A): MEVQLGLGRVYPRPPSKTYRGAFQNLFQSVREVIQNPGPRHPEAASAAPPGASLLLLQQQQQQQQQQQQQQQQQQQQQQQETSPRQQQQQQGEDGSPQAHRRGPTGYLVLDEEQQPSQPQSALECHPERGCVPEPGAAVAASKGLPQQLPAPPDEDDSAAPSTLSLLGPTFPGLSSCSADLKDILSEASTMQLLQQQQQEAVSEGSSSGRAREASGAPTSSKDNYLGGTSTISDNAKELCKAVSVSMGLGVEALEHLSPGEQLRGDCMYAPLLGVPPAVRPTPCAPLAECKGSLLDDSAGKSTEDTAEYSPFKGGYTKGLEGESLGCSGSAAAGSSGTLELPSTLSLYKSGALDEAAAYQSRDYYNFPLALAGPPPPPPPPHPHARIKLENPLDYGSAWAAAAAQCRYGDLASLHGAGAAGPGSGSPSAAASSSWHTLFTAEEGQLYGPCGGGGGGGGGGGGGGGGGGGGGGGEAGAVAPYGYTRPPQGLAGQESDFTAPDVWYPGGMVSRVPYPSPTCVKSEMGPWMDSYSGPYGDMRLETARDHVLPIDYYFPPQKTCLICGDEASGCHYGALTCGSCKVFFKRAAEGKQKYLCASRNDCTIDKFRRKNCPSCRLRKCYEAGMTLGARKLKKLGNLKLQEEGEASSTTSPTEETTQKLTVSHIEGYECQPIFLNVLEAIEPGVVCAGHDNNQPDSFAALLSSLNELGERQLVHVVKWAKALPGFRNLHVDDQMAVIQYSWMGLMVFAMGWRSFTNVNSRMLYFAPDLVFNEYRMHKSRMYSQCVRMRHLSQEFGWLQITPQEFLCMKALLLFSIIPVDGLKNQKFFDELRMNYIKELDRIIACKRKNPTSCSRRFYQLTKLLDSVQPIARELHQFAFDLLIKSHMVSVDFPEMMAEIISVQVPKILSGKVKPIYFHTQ
Put plainly: Cycloheximide chasing assay of AR degradation in LNCaP cells. To be noted: in the presence of cycloheximide (CHX) (FIG. 7). It counts as cell-based. As to the method:
AR protein "degradation" in prostate cancer cells was measured by using cycloheximide (a protein synthesis inhibitor) chasing assay method. Briefly, LNCaP cells were incubated with testing ASC compound at the designated concentrations for 24 hours. Subsequently, cycloheximide was added to the cells at a concentration of 15 µg/ml to block new protein synthesis. After incubation, cells were harvested at designated time periods and the resultant change in AR protein levels were analysed using Western Blot analysis as described above.

In assay [2] the target is T2, Androgen Receptor (AR) (Homo sapiens, UniProt P10275, T878A).
T2 sequence (P10275 1-920 T878A): T1 sequence (P10275 1-920 T878A)
Put plainly: Western Blot analysis of AR protein expression in LNCaP cells. To be noted: various concentrations, Western Blot (FIG. 6). Background: In western blotting, separated proteins are transferred to a membrane and probed.

The target of assay [3] is T3, Androgen Receptor (AR) (Homo sapiens, UniProt P10275, H875Y, form not given).
T3 sequence (P10275 1-920 H875Y): T1 sequence (P10275 1-920 T878A) with H875Y, A878T
Briefly: Western Blot analysis of AR protein expression in CWR22Rv1 cells. Type of assay: cell-based. To be noted: various concentrations, Western Blot (FIG. 6).

Structures are written as SMILES. Numbering of substitutions follows the chain as printed.

Broadly, the IC50 is the concentration that gives 50% inhibition. Take `COc1ccc(C=CC(=O)C=C(O)C=Cc2ccc(OC)c(OC)c2)cc1OC` [ASC-J9®, 1,7-Bis-(3,4-dimethoxy-phenyl)-5-hydroxy-hepta-1,4,6-trien-3-one, reference compound]: the IC50 in assay [1] was 4 µM. The AR protein degradation entry on AR protein is “enhances AR protein degradation”.

Consider `COc1ccc(/C=C/C(=O)C(C(=O)/C=C/c2ccc(OC)c(OC)c2)=C(O)/C=C/c2ccc(OC)c(OC)c2)cc1OC` [ASC-JM4], for which the “reducing endogenous AR expression” value at Androgen Receptor (AR) [2] and at Androgen Receptor (AR) [3] was “capable of reducing endogenous AR expression” in each case.

Regarding `COc1ccc(/C=C/C(=O)C2CC(c3ccc(OC)c(OC)c3)(C(C(=O)/C=C/c3ccc(OC)c(OC)c3)C(=O)/C=C/c3ccc(OC)c(OC)c3)CC2=O)cc1OC` (centres unmarked) [ASC-JM5], the AR protein degradation result on AR protein was “enhances AR protein degradation”.

These data come from EP3150203B1, “COMPOUNDS WITH (1E,6E)-1,7-BIS-(3,4- DIMETHOXYPHENYL)-4,4-DISSTITUTED-HEPA-1,6-DIENE-3,5-DI-ONE STRUCTURAL SCAFFOLD,THEIR BIOLOGICAL ACTIVITY, AND USES THEREOF” (Allianz Pharmascience Ltd, priority 2012, dated 2013).
